# Test results as given in patent US8658791B2, “2-substituted-6-amino-5-alkyl, alkenyl or alkynyl-4-pyrimidinecarboxylic acids and 6-substituted-4-amino-3-alkyl, alkenyl or alkynyl picolinic acids and their use as herbicides” (Dow AgroSciences, LLC, priority 2007, dated 2014).
# How the values were obtained:
# [1] = system: wild poinsettia (Euphorbia heterophylla); experiment: General postemergence herbicidal activity, EPHHL; type: in vivo; details: Euphorbia heterophylla, post-emergence, 336 h, postemergence spray, visual score after 14 days, 0 = no injury, 100 = complete kill, read-out: Post-emergent Weed Control EPHHL; for pest or weed control at 280 g/ha: 280 g ai/ha; for pest or weed control at 70 g/ha: 70 g ai/ha; for pest or weed control at 140 g/ha: 140 g ai/ha
# In short: (§1)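 Greenhouse plants at first or second true leaf stage sprayed postemergence at 187 L/ha with compound in acetone/DMSO/water mixture with crop oil concentrate and surfactant. Rates ran from a high rate through 1/2X to 1/16X. Visual injury versus untreated plants scored 0–100% after 14 days.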
# [2] = system: wild poinsettia (Euphorbia heterophylla); experiment: General preemergence herbicidal activity, EPHHL; type: in vivo; details: 140 g ai/ha, applied to soil surface, visual score after 20-22 days, 0 = no injury, 100 = complete kill or no emergence, read-out: Pre-emergent Weed Control EPHHL
# Description: (§2) Seeds of the desired test plant species were planted in a soil matrix prepared by mixing a loam soil (43 percent silt, 19 percent clay, and 38 percent sand, with a pH of about 8.1 and an organic matter content of about 1.5 percent) and sand in a 70 to 30 ratio. The soil matrix was contained in plastic pots with a surface area of 127 square centimeters. When required to ensure good germination and healthy plants, a fungicide treatment and/or other chemical or physical treatment was applied. A weighed amount, determined by the highest rate to be tested, of each test compound was placed in a 25 mL glass vial and was dissolved in 6 mL of a 97:3 v/v (volume/volume) mixture of acetone and DMSO to obtain concentrated stock solutions. […] The stock solutions obtained were diluted with 18 mL of a 0.1% v/v aqueous solution of Tween® 20 surfactant to obtain spray solutions containing the highest application rate. Additional application rates were obtained by serial dilution of 12 mL of the high rate solution into a solution containing 3 mL of 97:3 v/v mixture of acetone and DMSO and 9 mL of the 0.1% v/v aqueous solution of Tween® 20 surfactant to obtain 1/2X, 1/4X, 1/8X and 1/16X rates of the high rate. Compound requirements are based upon a 12 mL application volume at a rate of 187 L/ha. Formulated compounds were applied to the soil surface with an overhead Mandel track sprayer equipped with a […] nozzles calibrated to deliver 187 L/ha over an application area of 0.503 square meters at a spray height of 18 inches (43 cm) above the soil surface. Control pots were sprayed in the same manner with the solvent blank. The treated pots and control pots were placed in a greenhouse maintained with an approximate 15 hour photoperiod and temperatures of about 23-29° C. during the day and 22-28° C. during the night. Nutrients and water were added on a regular basis and supplemental lighting was provided with overhead metal halide 1000-Watt lamps as necessary. The water was added by top-irrigation. After 20-22 days, the condition of the test plants that germinated and grew as compared with that of the untreated plants that emerged and grew was determined visually and scored on a scale of 0 to 100 percent where 0 corresponds to no injury and 100 corresponds to complete kill or no emergence.
# [3] = system: velvetleaf (Abutilon theophrasti); experiment: General preemergence herbicidal activity, ABUTH; type: in vivo; details: 140 g ai/ha, applied to soil surface, visual score after 20-22 days, 0 = no injury, 100 = complete kill or no emergence, read-out: Pre-emergent Weed Control ABUTH
# Description: as §2
# [4] = system: rice (Oryza sativa); experiment: General preemergence herbicidal activity, ORYSA; type: in vivo; details: 140 g ai/ha, applied to soil surface, visual score after 20-22 days, 0 = no injury, 100 = complete kill or no emergence, read-out: Pre-emergent Weed Control ORYSA
# Description: as §2
# [5] = system: velvetleaf (Abutilon theophrasti); experiment: General postemergence herbicidal activity, ABUTH; type: in vivo; details: Abutilon theophrasti, post-emergence, 336 h, postemergence spray, visual score after 14 days, 0 = no injury, 100 = complete kill, read-out: Post-emergent Weed Control ABUTH; for pest or weed control at 280 g/ha: 280 g ai/ha; for pest or weed control at 70 g/ha: 70 g ai/ha; for pest or weed control at 140 g/ha: 140 g ai/ha
# In short: as §1
# [6] = system: barnyardgrass (Echinochloa crus-galli); experiment: General postemergence herbicidal activity, ECHCG; type: in vivo; details: Echinochloa crus-galli, post-emergence, 336 h, postemergence spray, visual score after 14 days, 0 = no injury, 100 = complete kill, read-out: Post-emergent Weed Control ECHCG; for pest or weed control at 280 g/ha: 280 g ai/ha; for pest or weed control at 70 g/ha: 70 g ai/ha; for pest or weed control at 140 g/ha: 140 g ai/ha
# In short: as §1
# [7] = system: barnyardgrass (Echinochloa crus-galli); experiment: General preemergence herbicidal activity, ECHCG; type: in vivo; details: 140 g ai/ha, applied to soil surface, visual score after 20-22 days, 0 = no injury, 100 = complete kill or no emergence, read-out: Pre-emergent Weed Control ECHCG
# Description: as §2
# [8] = system: lambsquarter (Chenopodium album); experiment: General preemergence herbicidal activity, CHEAL; type: in vivo; details: 140 g ai/ha, applied to soil surface, visual score after 20-22 days, 0 = no injury, 100 = complete kill or no emergence, read-out: Pre-emergent Weed Control CHEAL
# Description: as §2
# [9] = system: lambsquarter (Chenopodium album); experiment: General postemergence herbicidal activity, CHEAL; type: in vivo; details: Chenopodium album, post-emergence, 336 h, postemergence spray, visual score after 14 days, 0 = no injury, 100 = complete kill, read-out: Post-emergent Weed Control CHEAL; for pest or weed control at 280 g/ha: 280 g ai/ha; for pest or weed control at 70 g/ha: 70 g ai/ha; for pest or weed control at 140 g/ha: 140 g ai/ha
# In short: as §1
# [10] = system: rice (Oryza sativa); experiment: General postemergence herbicidal activity, ORYSA; type: in vivo; details: Oryza sativa, post-emergence, 336 h, postemergence spray, visual score after 14 days, 0 = no injury, 100 = complete kill, read-out: Post-emergent Weed Control ORYSA; for plant injury at 280 g/ha: 280 g ai/ha; for plant injury at 70 g/ha: 70 g ai/ha; for plant injury at 140 g/ha: 140 g ai/ha
# In short: as §1
SMILES,pest or weed control at 70 g/ha [1] [%],pest or weed control at 70 g/ha [5] [%],pest or weed control at 70 g/ha [6] [%],pest or weed control at 70 g/ha [9] [%],plant injury at 70 g/ha [10] [%],melting point [°C],pest or weed control at 140 g/ha [1] [%],pest or weed control at 140 g/ha [5] [%],pest or weed control at 140 g/ha [6] [%],pest or weed control at 140 g/ha [9] [%],plant injury at 140 g/ha [10] [%],other results
"CCOC(=O)c1nc(C2CC2)nc(N)c1C [Compound 1, 6-Amino-2-cyclopropyl-5-methylpyrimidine-4-carboxylic acid ethyl ester]",,,,,,,,,,,,pest or weed control at 280 g/ha [1]: 100%; pest or weed control at 140 g/ha [2]: 100%; pest or weed control at 140 g/ha [3]: 80%; plant injury at 140 g/ha [4]: 30%; pest or weed control at 280 g/ha [5]: 15%; pest or weed control at 280 g/ha [6]: 0%; pest or weed control at 140 g/ha [7]: 80%; pest or weed control at 140 g/ha [8]: 100%; pest or weed control at 280 g/ha [9]: 80%; plant injury at 280 g/ha [10]: 0%
"C=Cc1c(N)nc(-c2ccc(Cl)c(OC)c2F)nc1C(=O)OC [Compound 3, 6-Amino-2-(4-chloro-2-fluoro-3-methoxyphenyl)-5-vinylpyrimidine-4-carboxylic acid methyl ester]",100,100,95,100,15,,,,,,,pest or weed control at 140 g/ha [2]: 100%; pest or weed control at 140 g/ha [3]: 80%; plant injury at 140 g/ha [4]: 30%; pest or weed control at 140 g/ha [7]: 80%; pest or weed control at 140 g/ha [8]: 100%
"C/C=C\c1c(N)nc(-c2ccc(Cl)c(OC)c2F)nc1C(=O)OC [Compound 23, 6-Amino-2-(4-chloro-2-fluoro-3-methoxyphenyl)-5-((Z)-propenyl)pyrimidine-4-carboxylic acid methyl ester]",100,85,95,95,10,91 to 93,,,,,,
"COc1c(Cl)ccc(-c2nc(N)c(C(C)OC)c(C(=O)O)n2)c1F (centres unmarked) [Compound 40, 6-Amino-2-(4-chloro-2-fluoro-3-methoxyphenyl)-5-(1-methoxyethyl)pyrimidine-4-carboxylic acid]",,,,,,165 to 167,,,,,,pest or weed control at 280 g/ha [1]: 100%; pest or weed control at 280 g/ha [5]: 85%; pest or weed control at 280 g/ha [6]: 90%; pest or weed control at 280 g/ha [9]: 100%; plant injury at 280 g/ha [10]: 35%
"C=Cc1c(N)nc(-c2ccc(Cl)c(OC)c2F)nc1C(=O)O [Compound 41, 6-Amino-2-(4-chloro-2-fluoro-3-methoxyphenyl)-5-vinylpyrimidine-4-carboxylic acid]",100,100,100,100,65,167 to 168,,,,,,
"C=Cc1c(N)nc(-c2ccc(Cl)c(F)c2F)nc1C(=O)O [Compound 44, 6-amino-2-(4-chloro-2,3-difluorophenyl)-5-vinylpyrimidine-4-carboxylic acid]",100,100,100,100,15,170 to 172,,,,,,
"C=Cc1c(N)nc(-c2cc(F)c(Cl)cc2F)nc1C(=O)O [Compound 46, 6-Amino-2-(4-chloro-2,5-difluorophenyl)-5-vinylpyrimidine-4-carboxylic acid]",,,,,,81 to 83,95,90,90,100,40,
"C=Cc1c(N)nc(-c2ccc(Cl)c(C(C)F)c2F)nc1C(=O)O (centres unmarked) [Compound 47, 6-Amino-2-(4-chloro-2-fluoro-3-(1-fluoroethyl)phenyl)-5-vinylpyrimidine-4-carboxylic acid]",100,90,100,100,50,150 to 153,,,,,,
"C=Cc1c(N)nc(C2CC2)nc1C(=O)O [Compound 57, 6-amino-2-cyclopropyl-5-vinylpyrimidine-4-carboxylic acid]",,,,,,187 to 189,100,90,30,100,5,
"C=Cc1c(N)cc(-c2ccc(Cl)cc2F)nc1C(=O)O [Compound 60, 4-Amino-6-(4-chloro-2-fluorophenyl)-3-vinylpyridine-2-carboxylic acid]",,,,,,209 to 211,80,70,35,100,15,
